In this assay the test system is MCH receptors. The assay can be described thus: MCH receptor activity class (method not given).
The mark [1] stands for this setting: class by percent of control at 10^-7 M or IC50.
[2] abbreviates: activity class 1-3: percent of control at 10^-7 M or IC50.

Like-named read-outs stand apart in the source and are kept apart here.

Our source for the class values is patent publication US20050197350A1, “Novel quinoline, tetrahydroquinazoline, and pyrimidine derivatives and methods of treatment related to the use thereof” (TAISHO PHARMACEUTICAL CO., LTD., priority 2003, published 2005).

For the molecule “(2-{[4-(4-Dimethylamino-5,6,7,8-tetrahydro-quinazolin-2-ylamino)-cyclohexylamino]-methyl}-cyclohexyl)-phenyl-methanol [compound 1492]”, under setting [1], the class is on record as 3 (Class 3 The value of percent of control at 10^−7 M was more than 60% or the value of IC50 was more than 200 nM.).

As for `CN(C)c1nc(N[C@H]2CC[C@@H](NC(=O)c3ccc(F)c(C(F)(F)F)c3)CC2)nc2c1CCCC2` [compound 542], for the setting “class 1-3 by percent of control at 10^-7 M or IC50”, the class is given as 1 (Class 1: The value of percent of control at 10^−7 M was less than 40% or the value of IC50 was less than 50 nM.). For the molecule `CCCCc1ccc(NC(=O)N[C@H]2CC[C@@H](Nc3nccc(N(C)C)n3)CC2)c(C)c1` [compound 2255], the class under setting [1] is on record as 3 (Class 3 The value of percent of control at 10^−7 M was more than 60% or the value of IC50 was more than 200 nM.).

`COC(=O)[C@H](CCSC)NC(=O)N[C@H]1CC[C@@H](Nc2nc3c(c(N(C)C)n2)CCCC3)CC1` (relative stereo) [compound 1699]: the class under setting [2] is on record as 3 (Class 3 The value of percent of control at 10^−7 M was more than 60% or the value of IC50 was more than 200 nM.). Regarding `COc1ccc2ccccc2c1CNC[C@H]1CC[C@@H](Nc2nc3c(c(N(C)C)n2)CCCC3)CC1` [compound 1370], the class under setting [1] was 3 (Class 3 The value of percent of control at 10^−7 M was more than 60% or the value of IC50 was more than 200 nM.). `CN(C)c1cc(N[C@H]2CC[C@@H](CNC(=O)c3c(Cl)cc(Cl)cc3Cl)CC2)nc2ccccc12` [compound 233]: the class under setting [1] is given as 1 (Class 1: The value of percent of control at 10^−7 M was less than 40% or the value of IC50 was less than 50 nM.). Take `COc1ccccc1OC(=O)N[C@H]1CC[C@@H](Nc2nc3c(c(N(C)C)n2)CCCC3)CC1` [compound 1584]: the class under setting [2] is given as 3 (Class 3 The value of percent of control at 10^−7 M was more than 60% or the value of IC50 was more than 200 nM.). In the case of `CN(C)c1ccnc(N[C@H]2CC[C@@H](NC(=O)Nc3ccccc3Cl)CC2)n1` [compound 2179], the class under setting [1] is 3 (Class 3 The value of percent of control at 10^−7 M was more than 60% or the value of IC50 was more than 200 nM.). For the molecule `CN(C)c1ccnc(N[C@H]2CC[C@@H](CNC(=O)Cc3ccccc3OC(F)(F)F)CC2)n1` [compound 945], the class under setting [1] is 1 (Class 1: The value of percent of control at 10^−7 M was less than 40% or the value of IC50 was less than 50 nM.). On the same count and under the same terms, the figure for `CN(C)c1ccnc(N[C@H]2CC[C@@H](CNC(=O)c3cccs3)CC2)n1` [compound 397] is 3 (Class 3 The value of percent of control at 10^−7 M was more than 60% or the value of IC50 was more than 200 nM.); for `CCOc1ccccc1CN[C@H]1CC[C@@H](Nc2nccc(N(C)C)n2)CC1` [compound 1206] it is 3 (Class 3 The value of percent of control at 10^−7 M was more than 60% or the value of IC50 was more than 200 nM.); for `COc1cc(CC(=O)N[C@H]2CC[C@@H](Nc3cc(N(C)C)c4ccccc4n3)CC2)cc(OC)c1O` [compound 700] it is 3 (Class 3 The value of percent of control at 10^−7 M was more than 60% or the value of IC50 was more than 200 nM.).

For the molecule `Cc1ccccc1NC(=O)NC[C@H]1CC[C@@H](Nc2nccc(N(C)C)n2)CC1` [compound 2414], the class (MCH receptor activity class 1-3 (percent of control at 10^-7 M or IC50)) is given as 3 (Class 3 The value of percent of control at 10^−7 M was more than 60% or the value of IC50 was more than 200 nM.).

For `CCCCC/C(=C\c1ccccc1)CN[C@H]1CC[C@@H](Nc2nc3c(c(N(C)C)n2)CCCC3)CC1` [compound 1353], the class under setting [1] is recorded as 3 (Class 3 The value of percent of control at 10^−7 M was more than 60% or the value of IC50 was more than 200 nM.). Regarding `CCc1cccc(C)c1NC(=S)N[C@H]1CC[C@@H](Nc2cc(N(C)C)c3ccccc3n2)CC1` [compound 2280], the class under setting [1] was 3 (Class 3 The value of percent of control at 10^−7 M was more than 60% or the value of IC50 was more than 200 nM.). `CN(C)c1ccnc(N[C@H]2CC[C@@H](CNCc3ccccc3SC(F)(F)F)CC2)n1` [compound 1286]: the class under setting [1] was 3 (Class 3 The value of percent of control at 10^−7 M was more than 60% or the value of IC50 was more than 200 nM.). As for `Cc1cc(C)c(C(=O)NC[C@H]2CC[C@@H](Nc3cc(N(C)C)c4ccccc4n3)CC2)c(C)c1` [compound 231, N-[(cis-4-{[4-(dimethylamino)quinolin-2-yl]amino}cyclohexyl)methyl]-2,4,6-trimethylbenzamide], the class under setting [1] is 1 (Class 1: The value of percent of control at 10^−7 M was less than 40% or the value of IC50 was less than 50 nM.). Consider `Cc1c(C(=O)N[C@H]2CC[C@@H](Nc3nccc(N(C)C)n3)CC2)cc(-c2ccccc2)n1CCCN1CCOCC1` [compound 863, N-(cis-4-{[4-(dimethylamino)pyrimidin-2-yl]amino}cyclohexyl)-2-methyl-1-(3-morpholin-4-ylpropyl)-5-phenyl-1H-pyrrole-3-carboxamide], for which, under setting [1], the class is recorded as 2 (Class 2: The value of percent of control at 10^−7 M was from 40% to 60% or the value of IC′50 was from 50 nM to 200 nM.). `CN(C)c1cc(N[C@H]2CC[C@@H](NC(=O)c3ccccc3CCc3ccccc3)CC2)nc2ccccc12` [compound 732]: the class under setting [1] is reported as 3 (Class 3 The value of percent of control at 10^−7 M was more than 60% or the value of IC50 was more than 200 nM.). Turning to `CN(C)c1cc(N[C@H]2CC[C@@H](NC(=O)Nc3c(Cl)cc(Cl)cc3Cl)CC2)nc2ccccc12` [compound 2099, N-(cis-4-{[4-(dimethylamino)quinolin-2-yl]amino}cyclohexyl)-N′-(2,4,6-trichlorophenyl)urea], the class under setting [1] is listed as 2 (Class 2: The value of percent of control at 10^−7 M was from 40% to 60% or the value of IC′50 was from 50 nM to 200 nM.). For `CN(C)c1nc(N[C@H]2CC[C@@H](NC(=O)C(c3ccc(Cl)cc3)c3ccc(Cl)cc3)CC2)nc2c1CCCC2` [compound 962], the class under setting [1] is on record as 1 (Class 1: The value of percent of control at 10^−7 M was less than 40% or the value of IC50 was less than 50 nM.). For the molecule `Cc1cc(N(C)C)nc(N[C@H]2CC[C@@H](NC(=O)c3ccc(Cl)cc3)CC2)n1` [Example 2566, 4-chloro-N-(cis-4-{[4-(dimethylamino)-6-methylpyrimidin-2-yl]amino}cyclohexyl)benzamide], the class was found to be 1. Consider `COc1ccc(CNC[C@H]2CC[C@@H](Nc3cc(N(C)C)c4ccccc4n3)CC2)c2ccccc12` [compound 1126], for which the class (activity class per percent of control at 10^-7 M or IC50) is given as 2 (Class 2: The value of percent of control at 10^−7 M was from 40% to 60% or the value of IC′50 was from 50 nM to 200 nM.). As to `Cc1cc(N(C)C)nc(N[C@H]2CC[C@@H](C(=O)NCc3cc(C(F)(F)F)cc(C(F)(F)F)c3)CC2)n1` [compound 2814, cis-N-[3,5-bis(trifluoromethyl)benzyl]-4-{[4-(dimethylamino)-6-methylpyrimidin-2-yl]amino}cyclohexanecarboxamide], the class (class by percent of control at 10^−7 M or IC50) is recorded as 1 (Class 1: The value of percent of control at 10^−7 M was less than 40% or the value of IC50 was less than 50 nM.). Take `COc1cc(NC(=O)N[C@H]2CC[C@@H](Nc3nc4c(c(N(C)C)n3)CCCC4)CC2)cc(OC)c1` [compound 1868]: under setting [1], the class is reported as 3 (Class 3 The value of percent of control at 10^−7 M was more than 60% or the value of IC50 was more than 200 nM.). For the molecule `CN(C)c1ccnc(N[C@H]2CC[C@@H](NC(=O)NC3C[C@H]3c3ccccc3)CC2)n1` (some centres unmarked) [compound 2221], under setting [1], the class is reported as 3 (Class 3 The value of percent of control at 10^−7 M was more than 60% or the value of IC50 was more than 200 nM.).
